The target of one assay is T1, HMG-CoA reductase (Rattus norvegicus, UniProt P51639).
T1 construct: from tissue; host or cells: rat liver microsomes (cholestyramine-induced)
T1 sequence (P51639 1-887): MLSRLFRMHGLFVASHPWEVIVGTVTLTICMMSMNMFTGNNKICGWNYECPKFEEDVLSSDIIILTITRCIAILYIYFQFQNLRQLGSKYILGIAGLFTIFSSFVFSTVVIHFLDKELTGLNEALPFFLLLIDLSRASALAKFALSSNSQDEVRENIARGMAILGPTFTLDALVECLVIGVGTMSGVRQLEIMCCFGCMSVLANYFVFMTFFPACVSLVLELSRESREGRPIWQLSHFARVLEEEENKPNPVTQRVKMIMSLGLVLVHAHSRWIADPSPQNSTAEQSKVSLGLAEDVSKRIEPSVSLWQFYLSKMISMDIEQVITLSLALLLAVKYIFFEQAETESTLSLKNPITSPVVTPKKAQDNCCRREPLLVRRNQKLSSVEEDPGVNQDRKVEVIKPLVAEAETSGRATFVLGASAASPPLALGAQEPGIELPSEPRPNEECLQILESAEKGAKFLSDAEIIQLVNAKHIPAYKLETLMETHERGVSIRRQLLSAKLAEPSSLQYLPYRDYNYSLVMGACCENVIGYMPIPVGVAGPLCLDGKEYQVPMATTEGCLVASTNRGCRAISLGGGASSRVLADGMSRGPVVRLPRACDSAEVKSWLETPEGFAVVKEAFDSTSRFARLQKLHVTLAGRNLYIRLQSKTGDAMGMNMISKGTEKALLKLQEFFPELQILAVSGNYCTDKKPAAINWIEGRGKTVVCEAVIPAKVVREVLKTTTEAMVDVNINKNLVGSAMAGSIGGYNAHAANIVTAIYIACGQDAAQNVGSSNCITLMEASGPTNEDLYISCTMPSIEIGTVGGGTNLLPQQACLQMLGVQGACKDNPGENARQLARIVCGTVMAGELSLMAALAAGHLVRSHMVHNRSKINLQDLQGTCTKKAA
The assay is described as follows: In vitro determination of inhibitory potential of HMG-CoA reductase inhibitors (Test A, rat liver microsomal enzyme). To be noted: HMG-CoA reductase from rat liver microsomes; inhibitors converted to sodium salts. The assay is classed as biochemical.

Assay [1] deals with cholesterol biosynthesis in Human hepatoma (HEP G2) cells. In words: Assay for the inhibition of cholesterol biosynthesis in cultured cells (Test B, HEP G2). In kind it is cell-based. Conditions: 2-14C-acetate incorporation, HEP G2, 3 hours at 37° C. The protocol: ASSAY FOR THE INHIBITION OF CHOLESTEROL BIOSYNTHESIS IN CULTURED CELLS
Human hepatoma (HEP G2) or fibroblastic (HES-9) cells were grown in Dulbecco's modified Eagle's medium (DMEM) with 10% foetal calf serum, in 6 cm tissue culture dishes until approaching confluence (approximately 4 days). The medium was changed to DMEM with 1% foetal calf serum 24 hours prior to experimentation.
Test compounds that are salts were dissolved in aqueous, physiological buffer. Lactones and esters were dissolved in dimethylsulphoxide.
Test compound were added to the cell monolayers concurrently with 2-^14 C-acetate (5 μCi/ml of incubation volume); control samples receiving vehicle together with radioisotope. The incubation was continued for 3 hours at 37° C.
The IC50 for inhibition of sterol synthesis by test compounds was measured from plots of % inhibition (compared to controls) versus log concentration, using at least 5 concentrations of inhibitor.
This assay, therefore, measures the ability of test substances to inhibit intracellular synthesis of cholesterol.

The mark [2] stands for this setting: HepG2, inhibition of sterol synthesis.

Experimental for HMG-CoA reductase: HMG-CoA reductase was induced in rats by feeding a normal diet supplemented with 3% cholestyramine resin for one week prior to sacrifice. […] Briefly, the livers were immediately placed in ice-cold buffer I (see below) and homogenised in a Potter-Elvehjem type glass/TEFLON homogeniser (10 passes at 1000 rpm). […] The supernatant was centrifuged at 100,000×g for 75 minutes, the microsomal pellet resuspended in buffer II (see below) and centrifuged at 100,000×g for 75 minutes. The resultant pellet was stored at -70° C. until required for assay purposes.
Membrane bound enzyme isolated as above is used for determining the activity of inhibitors. The assay is performed in a total volume of 300 μl in 100 mM KPO4 pH 7.2 buffer, containing 3 mM MgCl2, 5 mM glucose-6-phosphate, 10 mM reduced glutathione, 1mM NADP, 1 unit glucose-6-phosphate dehydrogenase, and 1 mg/ml BSA, with resuspended enzyme. Putative inhibitors are converted to sodium salts, then dissolved in dimethylsulphoxide and 10 μl aliquots added to the incubation.
The assay is pre-incubated at 37° C. for 10 minutes and initiated by the addition of 0.1 μCi 3-hydroxy-3-methyl-[3-^14 C]glutaryl coenzyme A (52 Ci/Mole) followed by incubating the complete reaction at 37° C. for 10 minutes. At the end of this period the reaction is stopped by adding 300 μl of a 10 mM mevalonolactone solution in 0.1 M hydrochloric acid and the mevalonic acid product allowed to lactonise for a further period of 30 minutes. The product is then isolated by chromatography using Bio-Rex 5 resin and the enzyme activity quantified by liquid scintillation spectrophotometry.
Appropriate controls are included in the assay and IC50 values obtained by graphical means.

Consider `C/C=C\[C@@H]1C[C@H](OC(=O)[C@@H](C)CC)[C@@H]2[C@@H](CC[C@@H](O)C[C@@H](O)CC(=O)O)[C@@H](C)C=C[C@H]2C1` [Compound B, Sodium (1S,2S,4aR,6S,8S,8aS,3'R,5'R,2"S)-7'-(1,2,4a, 5,6,7,8,8a-octahydro-2-methyl-8[(2"-methyl-1"-oxobutyl)oxy]-6-[(Z)-prop-1-enyl]-1-naphthalenyl)-3',5'-dihydroxyheptanoate], for which the IC50 on HMG-CoA reductase amounted to 0.015 µM; in assay [1] (setting [2]), 0.06 µM.
Take `C/C=C/[C@@H]1C[C@H](OC(=O)C(C)(C)CC)[C@@H]2[C@@H](CC[C@@H](O)C[C@@H](O)CC(=O)O)[C@@H](C)C=C[C@H]2C1` [Compound N, Sodium (1S,2S,4aR,6S,8S,8aS,3'R,5'R)-7'-(1,2,4a,5,6,7,8,8a-octahydro-2-methyl-8-[(2"-dimethyl-1"-oxobutyl)oxy]-6-[(E)-prop-1enyl]-1-naphthalenyl)-3',5'-dihydroxyheptanoate]: the IC50 was determined as 0.003 µM at HMG-CoA reductase and 0.007 µM in assay [1] (setting [2]).
As to `CC[C@H](C)C(=O)O[C@H]1C[C@@H](C)C[C@@H]2C=C[C@H](C)[C@H](CC[C@@H]3C[C@@H](O)CC(=O)O3)[C@@H]12` [Dihydromevinolin, reference compound], the IC50 at HMG-CoA reductase was found to be 0.03 µM; in assay [1] (setting [2]), 0.04 µM.
`C/C=C/[C@@H]1C[C@H](OC(=O)[C@@H](C)CC)[C@@H]2[C@@H](CC[C@@H]3C[C@@H](O)CC(=O)O3)[C@@H](C)C=C[C@H]2C1` [Compound G, (1S,2S,4aR,6S,8S,8aS,4'R,6'R,2"S)6'-{2-(1,2,4a,5,6,7,8,8a-octahydro-2-methyl-8[(2"-methyl-1"-oxobutyl)oxy]-6-[(E)-prop-1-enyl]-1-naphthalenyl)ethyl}-tetrahydro-4'-hydroxy-2H-pyran-2'-one] yielded an IC50 in assay [1] (HepG2, after hydrolysis, inhibition of sterol synthesis) of 0.025 µM.

(Values after patent publication US5308864A, “6-(hydronaphtyl-1-ethyl)-4-hydroxy-3,4,5,6-tetrahydro-2H-pyran-2-ones and the corresponding hydroxy acids” (British Bio-Technology Limited, priority 1989, dated 1994).)
